{
  "source": "ChEMBL document CHEMBL1132362",
  "about": "“Synthesis of 5-(carboranylalkylmercapto)-2'-deoxyuridines and 3-(carboranylalkyl)thymidines and their evaluation as substrates for human thymidine kinases 1 and 2” (J Med Chem, 1999)",
  "tested_on": "Thymidine Kinase (TK1)",
  "assay": "Kinetic constant Km for Thymidine Kinase (TK1)",
  "format": "ADME",
  "data": [
    {"smiles": "Cc1cn([C@H]2C[C@H](O)[C@@H](CO)O2)c(=O)[nH]c1=O", "note": "[DOXRIBTIMINE]", "values": [
      {"measurement": "Km", "value": 1, "unit": "µM"}
    ]}
  ]
}
